Measured values reported in patent US10322132B2, “Prevention or treatment of uratic or gouty diseases” (SHANTON PHARMA CO., LTD., priority 2015, dated 2019).

Tests used:
[1] = Pharmacokinetics experiment in cynomolgus monkeys, intravenous; type: in vivo, cynomolgus monkeys (Macaca fascicularis); details: 3 mg/kg, Mean ± SD, n = 3
Method: Three non-naïve cynomolgus monkeys were administered with test compounds A, B and D at a dose of 5 mg/kg by intravenous injection and with test compound C at a dose of 3 mg/kg by intravenous injection, with one compound being tested at a time. Blood was collected from the vein before administration and 1 h, 3 h, 6 h and 24 h after administration, and plasma was isolated. The plasma was analyzed by a 4000 Q Trap LC-MS/MS instrument. The concentrations of the test samples were output by Analyst 1.6.1 from AB Company. The parameters ( ) such as the mean, standard deviation, and coefficient of variation were calculated using Microsoft Excel, wherein the values directly output by Analyst 1.6.1 requires no calculation. PK parameters were calculated using Pharsight Phoenix 6.2 software (NCA model).

[2] = system: MSU-induced gouty arthritis; test: Pain value in rats with gouty arthritis (electronic Von Frey pain threshold detector); type: in vivo, Male Wistar rats
Method: The rats with gouty arthritis were placed in a metabolic cage, and the palm center of the left foot of each rat was irritated with an electronic Von Frey pain threshold detector. The maximum stress value was recorded when each rat withdrew its foot, and the value was the pain value of that rat.

[3] = system: IFNγ; test: ConA-induced IFNγ release; type: in vivo, Male C57BL/6 mice
Method: The experiment was conducted by reference to Dalya R. Soondl, Elisa Bjørgo, etc. PI3K p110δ regulates T cell cytokine production during primary and secondary immune responses in mice and humans. Blood. Author manuscript; available in PMC 2013 Mar. 11; and Gabriele Sass, Sonja Heinlein, etc. CYTOKINE EXPRESSION IN THREE MOUSE MODELS OF EXPERIMENTAL HEPATITIS. CYTOKINE, Vol. 19, No. 3 (7 Aug.), 2002: pp 115-120.
The C57BL/6 mice were raised in the SPF-grade animal room for 1 week, and were then randomly divided into the corresponding model group and the administration groups according to the body weight. The […] were administered with ConA by the tail vein injection at a dose of 15 mg/kg 30 min after the administration of the solvent or the test samples by subcutaneous injection at a dose of 20 mg/kg. After the mice were anesthetized with sodium pentobarbital (45 mg/kg by intraperitoneal injection) 3 h after administration of ConA, the blood was collected by cardiac puncture. The blood was placed in the centrifuge tube without anticoagulant and left still at room temperature. One hour later, the blood was centrifuged. The serum was extracted and stored at −80° C. The content of IFNγ (γ-interferon) in the serum was detected by a Mouse IFNγ Elisa

[4] = system: TNF-α; test: LPS-induced TNF-α release; type: in vivo, Male BALB/C mice
Method: The experiment was conducted by reference to Pascale Gaillard, Isabelle Jeanclaude-Etter, etc. Design and Synthesis of the First Generation of Novel Potent, Selective, and in Vivo Active (Benzothiazol-2-yl)acetonitrile
BALB/C mice were raised in the SPF-grade animal room for 1 week, and were then randomly divided into the corresponding model group and the administration groups according to the body weight. The […] were administered with the solvent or the test samples by subcutaneous injection at a dose of 10 mg/kg. The rats were administered with LPS by intraperitoneal injection at a dose of 15 mg/kg 30 min after the administration of the solvent or the test samples. The mice were anesthetized with sodium pentobarbital (45 mg/kg by intraperitoneal injection) 1 h after LPS administration. The blood was collected by cardiac puncture, and the content of TNF-α (tumor necrosis factor) in plasma was measured with a Mouse TNF-α Elisa Ready-set-go kit.

[5] = system: MSU-induced gouty arthritis; test: MSU-induced gouty arthritis, toe volume; type: in vivo, Male Wistar rats; details: for Inhibition of toe volume change (%): vs model group; for effect on increase of the toe volumes in the test rats (in words): compared with the model group
Method: The experiment was done by reference to Hsin-Pai Lee, Shi-Ying Huang, Yen-You Lin. Soft Coral-Derived Lemnalol Alleviates Monosodium Urate-Induced Gouty Arthritis in Rats by Inhibiting Leukocyte Infiltration and iNOS, COX-2 and c-Fos Protein Expression. […] 2013, 11, 99-113.
One gram of uric acid was weighed, introduced into 200 mL of boiling water and heated. Then, NaOH (2 mol/L) was added until pH reached 9. The solution became clear, and was cooled at room temperature and then left still overnight. MSU was obtained after filtration, which was dried at 60° C. for 24 h and then sterilized at a high temperature of 180° C.
The toe volumes of the rats were measured one day prior to the experiment. The rats were administered with the solvent by subcutaneous injection in the model group at a dose of 5 mL/kg, while the rats were administered with test samples by subcutaneous injection in administration groups at a dose of 5 mg/kg. Rats were anesthetized immediately after administration and were injected with 0.09 mL of MSU suspension into the joint cavity of the left ankle. The volume of the left toe was measured in rats 9 h after the injection of MSU into the ankle joint cavity.
The toe volumes of the rats were measured one day prior to the experiment. The rats were administered with the solvent by subcutaneous injection in the model group at a dose of 15 mL/kg, while the rats were administered with test samples by subcutaneous injection in administration groups at a dose of 15 mg/kg or 10 mg/kg. Rats were anesthetized immediately after administration and were injected with 0.09 mL of MSU suspension into the joint cavity of the left ankle. The volume of the left toe was measured in rats 9 h after the injection of MSU into the ankle joint cavity.
The toe volumes of rats were measured one day prior to the experiment. The rats were administered with the solvent by subcutaneous injection in the model group at a dose of 15 mL/kg, while the rats were administered with the test sample by subcutaneous injection in administration group at a dose of 15 mg/kg. Rats were anesthetized immediately after administration and were injected with 0.09 mL of MSU suspension into the joint cavity of the left ankle. The volume of the left toe in each rat was measured 9 h after the injection of MSU into the ankle joint cavity.

[6] = system: serum uric acid; test: Uric acid-lowering experiment in cynomolgus monkeys; type: in vivo; set-up: Reduction rate of serum uric acid: concentration or dose not given beside the values; details: for Reduction rate of serum uric acid / Content of serum uric acid: intravenous; for Reduction rate of serum uric acid: 24 h after administration vs before administration; for Content of serum uric acid: 24 h after administration
Method: The experiment was done by reference to Komoriya K, Osada Y, Hasegawa M, Horiuchi H, Kondo S, Couch R C, Griffin T B. Hypouricemic effect of allopurinol and the novel xanthine oxidase inhibitor TEI-6720 in chimpanzees. Eur J Pharmacol. 1993 Dec. 21; 250(3): 455-60.
Each compound was tested in three non-naïve cynomolgus monkeys (1 #, 2 # and 3 #), wherein the monkeys were administered with test samples by intravenous injection. Blood was collected from the vein before administration and 1 h, 3 h, 6 h and 24 h after administration. The blood was left still at room temperature. The serum was collected by centrifugation. The content of uric acid in serum was measured. Reduction rate of serum uric acid=(average uric acid content before administration−average uric acid content after administration)/average uric acid content before administration*100%.

[7] = system: IL-1β, IL-6, KC and TNFα; test: Air sacculitis (MSU-induced air sacs), cytokines in lavage fluid; details: 5 mg/kg (dexamethasone intraperitoneal, colchicine intragastric), lavage fluid supernatant, mean, n = 8
Method: (§1) The sterile MSU crystals were added to 5 mL of sterilized saline before injected into air sacs.
(§2) Male Wistar rats were raised for one week and then randomly divided into 6 groups. Animals were anesthetized and then injected with 24 mL of sterile air in their backs. The animals received the second injection of air 4 days later. On day 7, the rats in the blank group and model group were intragastrically administered with the solvent at a dose of 10 mL/kg; the rats in the dexamethasone group were administered by intraperitoneal injection with dexamethasone at a dose of 5 mg/kg; the rats in the colchicine group were intragastrically administered with colchicine at a dose of 5 mg/kg. […] One hour after administration, the rats in the blank group were injected with 5 mL of saline into the air sacs at the back, and the rats from other groups were injected with 5 mL of MSU crystal suspension (1 mg/mL) into the air sacs at the back. Four hours later, the lavage fluid in the air sacs was taken, and a portion of the lavage fluid was used for cytological analysis. The remaining was centrifuged at 8000 rpm for 15 min, and the supernatant was stored at −80° C. for the detection of cytokines IL-1β, IL-6, KC and TNFα. The test results were shown as mean±SEM and statistically analyzed by t-test.

[8] = system: MSU-induced air sacs; test: Air sacculitis (MSU-induced air sacs), leukocyte counts in lavage fluid; details: for Leukocyte count: Basophil / Leukocyte count: Eosinocyte / Leukocyte count: Lymphocyte / Leukocyte count: Monocyte / Leukocyte count: Neutrophil / Total cell count: 5 mg/kg (dexamethasone intraperitoneal, colchicine intragastric), lavage fluid 4 h after MSU, mean ± SEM, n = 8;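 as to all read-outs here: male Wistar rats with dorsal air sacs, dosed 1 h before injecting MSU crystal suspension, compared with saline-injected blank and vehicle-treated model groups, cytological analysis of lavage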
Method: as §1, §2

[9] = Example 5, 10 mg/kg subcutaneous, 9 h after MSU

CCCCn1c(=O)n(C)c(=O)c2[nH]c(Cl)nc21 [Compound C, 8-chloro-1-methyl-3-butyl-3,7-dihydro-1H-purine-2,6-dione]
t1/2z [1]: 41.49 ± 12.31 h | Pain value ([2]; Example 5, 10 mg/kg subcutaneous, left foot, Von Frey): 43.46 g | effect on pain values in the test rats (in words) ([2]; Example 5, compared with the model group): significantly increase | inhibition (%) ([3]; IFN-γ in serum vs model group, 20 mg/kg subcutaneous): 19.4% | effect on content of IFNγ in the serum of the test mice (in words) ([3]; compared with the model group): significantly reduce | Content of IFN-γ ([3]; serum, 20 mg/kg subcutaneous 30 min before ConA 15 mg/kg tail vein, 3 h after ConA): 2644 pg/mL | inhibition (%) ([4]; TNF-α in plasma vs model group, 10 mg/kg subcutaneous): 24.4% | effect on content of TNF-α in the plasma of the test mice (in words) ([4]; compared with the model group): significantly reduce | Content of TNF-α ([4]; plasma, 10 mg/kg subcutaneous 30 min before LPS 15 mg/kg i.p., 1 h after LPS): 1208 pg/mL | Change of toe volume ([5]; Example 4, 5 mg/kg subcutaneous, 9 h after MSU injection into left ankle joint cavity): 0.451 mL | Inhibition of toe volume change (%) ([5]; Example 4, 5 mg/kg subcutaneous, 9 h after MSU): 10.5% | effect on increase of the toe volumes in the test rats (in words) ([5]; Example 4, 5 mg/kg): significantly inhibit | Toe volume change [5, 9]: 0.261 mL | Inhibition of toe volume change (%) [5, 9]: 35.4% | effect on increase of the toe volumes in the test rats (in words) ([5]; Example 5, 15 mg/kg or 10 mg/kg): significantly inhibit | effect on serum uric acid levels in the test monkeys (in words) ([6]; compared to the levels measured before administration): significantly reduce | Reduction rate of serum uric acid ([6]; animal 1#): 20.3% | Reduction rate of serum uric acid ([6]; animal 2#): 41.0% | Reduction rate of serum uric acid ([6]; animal 3#): 13.9% | Reduction rate of serum uric acid ([6]; mean): 25.7% | Content of serum uric acid ([6]; animal 1#): 45.8 µmol/L | Content of serum uric acid ([6]; animal 2#): 38.3 µmol/L | Content of serum uric acid ([6]; animal 3#): 50.7 µmol/L | Content of serum uric acid ([6]; mean): 44.9 µmol/L

COc1cc2c(c(OC)c1OC)-c1ccc(OC)c(=O)cc1[C@@H](NC(C)=O)CC2 [Colchicine, colchicine, reference compound]
IL-1β [7]: 112.6 pg/mL | KC [7]: 9892.7 pg/mL | TNF-α [7]: 32.2 pg/mL | Leukocyte count: Basophil [8]: 0 ± 0 *10^4/air sacs | Leukocyte count: Eosinocyte [8]: 7.8 ± 2.0 *10^4/air sacs | Leukocyte count: Lymphocyte [8]: 12.1 ± 2.5 *10^4/air sacs | Leukocyte count: Monocyte [8]: 171.7 ± 20.1 *10^4/air sacs | Leukocyte count: Neutrophil [8]: 21.3 ± 6.6^$ *10^4/air sacs | Total cell count [8]: 212.9 ± 28.8^$ *10^4/air sacs | effect on increase of the total cell count and neutrophil count in the lavage fluid caused by MSU (in words) ([8]; compound A at the oral doses of 30 mg/kg and 100 mg/kg): significantly inhibit

C[C@@H]1C[C@H]2[C@@H]3CCC4=CC(=O)C=C[C@]4(C)[C@@]3(F)[C@@H](O)C[C@]2(C)[C@@]1(O)C(=O)CO [Dexamethasone, dexamethasone, reference compound]
IL-1β [7]: 27.8 pg/mL | KC [7]: 1653.5 pg/mL | TNF-α [7]: 6.6 pg/mL | Leukocyte count: Basophil [8]: 0 ± 0 *10^4/air sacs | Leukocyte count: Eosinocyte [8]: 4.8 ± 1.6 *10^4/air sacs | Leukocyte count: Lymphocyte [8]: 7.5 ± 1.1 *10^4/air sacs | Leukocyte count: Monocyte [8]: 171.0 ± 19.2 *10^4/air sacs | Leukocyte count: Neutrophil [8]: 13.8 ± 2.4^$ *10^4/air sacs | Total cell count [8]: 197.2 ± 22.8^$$ *10^4/air sacs
